One assay deals with HEK293 cells. Description: RSK signaling immunoblot in HEK293 cells. The format is cell-based, human. The procedure: HEK293 cells (Invitrogen, R75007) were seeded at a density of 500,000 cells per well in six-well cell culture plates (Corning Incorporated Costar #3516) in Dulbecco’s modified Eagle medium (DMEM) high-glucose + GlutaMAX Supplement, pyruvate (Thermo Fisher Scientific, catalog no. 31966-021) containing penicillin G (100 U/ml), streptomycin (100 μg/ml), and 10% (v/v) FBS. Once attached, the next day, the media were changed to serum-free and the cells were starved for 16 hours followed by compound treatment with BAY-3827, BI-D1870 (MedChemExpress, #HY-10510) ± 10 μM MK-2206 dihydrochloride (MedChemExpress, #HY-10358) with 30 min incubation at 37°C followed by coincubation with […] (MedChemExpress, #HY-18739) or vehicle for additional 30 min with final assay DMSO concentration of 0.13%. All cell lines used here were tested monthly for mycoplasma and tested negative.
Following compound treatment, the cells were washed with room temperature PBS and lysed on ice with the addition of lysis buffer [50 mM tris-HCl (pH 7.5), 150 mM NaCl, 1 mM EDTA, 1 mM EGTA, 0.27 M sucrose, 1% w/v Triton X-100, 20 mM glycerol-2 phosphate disodium, 50 mM NaF, and 5 mM Na4P2O7.10 H2O] containing proteases and phosphatase inhibitors [0.5 mM phenylmethylsulfonyl fluoride (PMSF), 1 mM benzamidine HCl, leupeptin (1 μg/ml), pepstatin A (1 μg/ml), 1 μM microcystin-LR, 1 mM Na3VO4, and 1 mM DTT]. Lysates were centrifuged at 10,000g, 4°C for 10 min, and protein concentration of the supernatant was determined with the Pierce Bradford Protein Assay Kit (Thermo Fisher Scientific, #23200) and read on the Hidex Plate Reader (software version 0.5.64.0). Samples were prepared in Laemmli sample buffer (tris 200 mM, 8% SDS, EDTA 2 mM, and 40% glycerol) supplemented with 10% DTT and boiled for 5 min at 100°C. Ten micrograms of protein per sample was run on a Criterion tris-glycine polyacrylamide gel (Bio-Rad, #5678095) and transferred to a nitrocellulose membrane. For cell signaling experiments in HEK293 cells, the samples were run on a Criterion TGX stain-free precast gel (Bio-Rad, catalog no. 5678085) with transfer to a polyvinylidene difluoride membrane performed in Bio-Rad Criterion blotter (#1704071) using tris-glycine transfer buffer (Bio-Rad, #1610734) following the manufacturer’s instructions. The membranes were probed at 4°C overnight in a 4% BSA TBS-T solution containing 0.02% sodium azide with the following antibodies where appropriate: Phospho-ACC (Ser^79) (1:1000, Cell Signaling Technology, #3661S), ACC (C83B10) (1:1000, Cell Signaling Technology, #3676S), phospho-Raptor (Ser^792) (1:1000, Cell Signaling Technology, #2083S), Raptor (24C12) (1:1000, Cell Signaling Technology, #2280S), GSK3αβ (1:2000, Sigma-Aldrich, #04-903), phospho-GSK3αβ (Ser^21/9) (D17D2) (1:1000, Cell Signaling Technology, #8566S), ERK1/2 (137F5) (1:1000, Cell Signaling Technology, #4695), phospho-ERK1/2 (Thr^202/Tyr^204) (D13.14.4E) (1:1000, Cell Signaling Technology, #4370), phospho-AMPKα (Thr^172) (40H9) (1:1000, Cell Signaling Technology, #2535S), AMPKα (1:1000, Cell Signaling Technology, #2532S), anti–glyceraldehyde-3-phosphate dehydrogenase antibody (1:5000, Cell Signaling Technology, #G8795), and vinculin (1:1000, Cell Signaling Technology, #13901). Membranes were scanned using the Odyssey Fc LiCor system (exposure time, 30 s) with densitometry analysis performed using LiCor Image Studio Lite normalizing to control loading protein. Figures were made using GraphPad Prism v10.

Assay [1] relates to pSer79-ACC1 in U2OS cells. Description: HTRF assay of Ser79-ACC1 phosphorylation in U2OS cells. To be noted: 10 μM. The class given is cell-based, human. The procedure:
(§1) Human osteosarcoma U2OS WT cells were obtained from John Rouse (MRC Protein Phosphorylation and Ubiquitylation Unit, University of Dundee) and were cultured in DMEM high glucose + GlutaMAX Supplement, pyruvate (Thermo Fisher Scientific, catalog no. 31966-021) containing penicillin G (100 U/ml), streptomycin (100 μg/ml), and 10% (v/v) FBS seeding with 50,000 cells per well in a 50-μl volume in culture 96-well cell culture plates (Corning Incorporated costar, #3599). The next day, the media were changed to 50 μl of serum-free media, and 50 μl of serum-free media containing BAY-3827 or BAY-974 was dispensed and left to incubate at 37°C for 30 min. […] HTRF assays using either phospho-Ser^79-ACC1 kit (Revvity, #64ACCPEG) or phospho-Thr^172-AMPK kit (Revvity, #64AMPKPEG) were performed in triplicate in HTRF 96-well low volume white plates (Revvity, #66PL96001) following manufacturer’s instructions. Sealed plates incubated overnight in darkness conditions were scanned at room temperature in Multimode Plate Reader EnVision (PerkinElmer) machine following HTRF setup recommendations for EnVision (Revvity), equipped with a top mirror LANCE/DELFIA single mirror (#412), a UV2 (TRF) 320 excitation filter (#111), emission filter APC 665 (#205), and second emission filter Europium 615 (#203), with a 2000-μs cycle and 60-μs delay, with the number of flashes set to 100 as well as for the 2nd detector. Results were viewed in EnVision Manager software (version 1.13.3009.1401) where 665/615 ratios were calculated, and data were normalized to control condition as %. All assay ratios between control lysate signal/nonspecific signal were greater than 2 as expected of a successful assay following the manufacturer’s instructions. Data were visualized in GraphPad Prism v10.
(In general: Time-resolved FRET reads energy transfer from a long-lived donor to a nearby acceptor.)

Assay [2] concerns pThr172-AMPKα in U2OS cells. Description: HTRF assay of Thr172-AMPKα phosphorylation in U2OS cells. To be noted: 10 μM. The class given is cell-based, human. As to the method:
as §1

For assay [3], the system named is AMPKα1α2+/+ control primary hepatocytes. Nature of the assay: Lipogenesis assay ([14C]-acetate incorporation into fatty acids). The format is cell-based, mouse. As to the method:
(§2) Mouse hepatocytes were isolated by collagenase perfusion as previously described ([47]). Hepatocytes were seeded in medium Eagle-199 (MEM-199) (#41150, Thermo Fisher Scientific) containing penicillin G (100 U/ml), streptomycin (100 μg/ml), and 10% (v/v) fetal bovine serum (FBS). Hepatocytes were left for attachment (3 to 4 hours) and serum-starved overnight at 37°C with 5% CO2 in MEM-199 supplemented with penicillin G (100 U/ml), streptomycin (100 μg/ml), 10 nM insulin, and 100 nM dexamethasone. […] Cells were then harvested in 0.5 ml of phosphate-buffered saline (PBS), transferred into 1 ml of 40% KOH and 2 ml of methanol followed by 1-hour incubation at 80°C. Lipids were […] by acidifying the samples in 37% HCl and extracted with petroleum ether. Extracts were allowed to evaporate to dryness and then dissolved in Ultima Gold scintillation fluid for determination of [^14C]-acetate incorporation into lipids.

Assay [4] deals with AMPKα1α2−/− DKO primary hepatocytes. The assay is described as above. The format is cell-based, mouse. As to the method:
as §2

The next assay concerns RSK1. Set-up: method as in PMID 20439741. The following applies: cited from earlier work.
For assay [5], the system named is AMPK. The arrangement: method as in PMID 20439741. To be noted: cited from earlier work.
Another assay relates to RSK2. The arrangement: method as in PMID 20439741. To be noted: cited from earlier work.
The test system of assay [6] is AMPK. The arrangement: method as in PMID 29695504. To be noted: 20 μM ATP; read-out: median inhibitory concentration (IC50); cited from earlier work.
Another assay concerns 119 kinases. Set-up: method as in PMID 21740966. The following applies: of 119 kinases, 1 μM; cited from earlier work.

Read-outs that look alike come from different tables or passages of the source.

As for `CC(C)CCN1c2nc(Nc3cc(F)c(O)c(F)c3)ncc2N(C)C(=O)C1C` (stereo not drawn) [BI-D1870], the “PMA-stimulated pGSK3αβ (surrogate of RSK activity)” value with HEK293 cells (10 μM, in the presence of MK-2206 (10 μM)) is recorded as “inhibited to the same extent”. Moreover, the ACC1 phosphorylation entry in the assay on HEK293 cells (serum-starved HEK293, 1 and 10 μM) is reported as “no effect”.

For `NC1(c2ccc(-c3nc4ccn5c(=O)[nH]nc5c4cc3-c3ccccc3)cc2)CCC1` [MK-2206], in the assay with HEK293 cells (10 μM), the “basal pGSK3αβ” value is recorded as “reduced”.

In the case of `O[C@@H]1CO[C@H]2[C@@H]1OC[C@H]2Oc1nc2nc(-c3ccc(-c4ccccc4)cc3)c(Cl)cc2[nH]1` [MK-8722], the pSer79-ACC1 versus vehicle result in assay [1] is listed as “significant increase”. Also, the pThr172-AMPK versus vehicle entry in [2] is recorded as “significant increase”. In assay [3] (compound alone, 10 μM), the suppression of lipogenesis is recorded as > 80%. Also, the effect on lipogenesis entry in [4] is “no effect”.

Take `Cc1nc(Nc2n[nH]c3c2CN(C(=O)N[C@H](CN(C)C)c2ccccc2)C3(C)C)c2sccc2n1` [PF-03758309]: the IC50 with RSK1 was 2 nM; with AMPK [5] it was 1 nM; in the assay on RSK2, 2 nM.

In the case of `CCCCCCCCCCCCCC(=O)O[C@@H]1[C@@H](C)[C@@]2(O)[C@@H](C=C(CO)C[C@]3(O)C(=O)C(C)=C[C@@H]23)[C@@H]2C(C)(C)[C@]12OC(C)=O` [PMA, phorbol 12-myristate 13-acetate], the “pERK1/2 and pGSK3αβ levels” value in the assay with HEK293 cells (0.1 μM, MK-2206–treated conditions) is given as “robustly increased”.

On to `CNC(=O)c1ccccc1Oc1nc(Nc2cc(OC)c(OC)c(OC)c2)ncc1Br` [SBI-0206965], for which the IC50 with AMPK [6] was 160 nM.

Take `c1cc(-c2cnn3cc(-c4ccc(OCCN5CCCCC5)cc4)cnc23)ccn1` [compound C]: the IC50 in the assay with AMPK [6] is […]. In addition, the “number of kinases inhibited more potently than AMPK” value in the assay with 119 kinases is given as 34. Also, the “restoration of MK-8722–inhibited lipogenesis” value in assay [3] (25 μM, + MK-8722 (10 μM)) was 10%.

Source of the values: paper PMC12372887, “Mechanism and cellular actions of the potent AMPK inhibitor BAY-3827” (Science Advances, 2025).
